In US20140017165A1, “DNA REPAIR ENZYME INHIBITOR NANOPARTICLES AND USES THEREOF” (priority 2011, published 2014):

Experiments:
[1] = cited from earlier work
[2] = Maximum tolerated dose (MTD) of wortmannin formulations in non-tumor-bearing mice; details: mouse, in vivo, other: injected, mg/kg of wortmannin, in cremophor solution or encapsulated in nanoparticle (2% w/w)
Procedure: MTD, defined as the highest possible dose resulting in no animal deaths and less than 20% weight loss was evaluated for wortmannin formulations. Non-tumor-bearing mice (NOD/SCID, C57BL/6, CB6F1 and CD1) were injected with varying amounts of wortmannin nanoparticle and wortmannin in cremophor normalized to mg wortmannin injected/kg of mice body weight. The animals were weighed and observed daily for any change in physical activity. Weight loss greater than 20% and/or lethargy were interpreted as indications of toxicity and the mice were immediately euthanized.
Table 2 compares the maximum tolerated dose (MTD) of wortmannin in cremophor and wortmannin nanoparticle in different mouse strains.

[3] = Toxicity profile (hematologic toxicity, hepatotoxicity) in CD1 mice after tail vein i.v. injection; format: in vivo; details: single tail vein i.v.; for Hematologic Toxicity: Monocytes: normal range 0.1-1.5; for Hematologic Toxicity: Lymphocytes: normal range 0.5-5; for Hematologic Toxicity: Granulocytes: normal range 1.2-8; for Hematologic Toxicity: WBC: normal range 3.5-10; for Hepatotoxicity: ALT / Hepatotoxicity: AST: plasma, normal range 40-50 U/L
Procedure: CD1 mice were given tail vein i.v. injection with different wortmannin formulations (wortmannin nanoparticle or wortmannin in cremophor) at the indicated doses (⅕^th the MTD or 1/10th the MTD). After 24 h, submandibular bleeding was performed. Blood (100-200 ul) was collected in heparin coated tubes to prevent coagulation. Whole blood samples were immediately submitted for blood toxicity to the Animal Clinical Laboratory Core Facility at UNC. For liver toxicity studies, blood samples were centrifuged (15000×g for 10 minutes) to separate blood cells from the plasma and samples were submitted for analysis.
Table 3 and 4 show the toxicity profile in mice of wortmannin in cremophor and wortmannin nanoparticle.
Table 3 and 4. Toxicity profile in CD1 mice post i.v. injection of wortmannin formulations. Mice were treated with indicated doses of wortmannin or wortmannin nanoparticle containing an equivalent dose of wortmannin (2% w/w). (Single tail vein i.v. injection, toxicity profile 3 d post injection).

cancer cells = details: Bae et al. 2007, FIG. 6; cited from earlier work
DNA-PK = DNA-PK (Homo sapiens, UniProt P78527); details: cited from earlier work
ATM = ATM (Homo sapiens, UniProt Q13315); details: cited from earlier work
Chain of ATM (Q13315 whole entry, species assumed): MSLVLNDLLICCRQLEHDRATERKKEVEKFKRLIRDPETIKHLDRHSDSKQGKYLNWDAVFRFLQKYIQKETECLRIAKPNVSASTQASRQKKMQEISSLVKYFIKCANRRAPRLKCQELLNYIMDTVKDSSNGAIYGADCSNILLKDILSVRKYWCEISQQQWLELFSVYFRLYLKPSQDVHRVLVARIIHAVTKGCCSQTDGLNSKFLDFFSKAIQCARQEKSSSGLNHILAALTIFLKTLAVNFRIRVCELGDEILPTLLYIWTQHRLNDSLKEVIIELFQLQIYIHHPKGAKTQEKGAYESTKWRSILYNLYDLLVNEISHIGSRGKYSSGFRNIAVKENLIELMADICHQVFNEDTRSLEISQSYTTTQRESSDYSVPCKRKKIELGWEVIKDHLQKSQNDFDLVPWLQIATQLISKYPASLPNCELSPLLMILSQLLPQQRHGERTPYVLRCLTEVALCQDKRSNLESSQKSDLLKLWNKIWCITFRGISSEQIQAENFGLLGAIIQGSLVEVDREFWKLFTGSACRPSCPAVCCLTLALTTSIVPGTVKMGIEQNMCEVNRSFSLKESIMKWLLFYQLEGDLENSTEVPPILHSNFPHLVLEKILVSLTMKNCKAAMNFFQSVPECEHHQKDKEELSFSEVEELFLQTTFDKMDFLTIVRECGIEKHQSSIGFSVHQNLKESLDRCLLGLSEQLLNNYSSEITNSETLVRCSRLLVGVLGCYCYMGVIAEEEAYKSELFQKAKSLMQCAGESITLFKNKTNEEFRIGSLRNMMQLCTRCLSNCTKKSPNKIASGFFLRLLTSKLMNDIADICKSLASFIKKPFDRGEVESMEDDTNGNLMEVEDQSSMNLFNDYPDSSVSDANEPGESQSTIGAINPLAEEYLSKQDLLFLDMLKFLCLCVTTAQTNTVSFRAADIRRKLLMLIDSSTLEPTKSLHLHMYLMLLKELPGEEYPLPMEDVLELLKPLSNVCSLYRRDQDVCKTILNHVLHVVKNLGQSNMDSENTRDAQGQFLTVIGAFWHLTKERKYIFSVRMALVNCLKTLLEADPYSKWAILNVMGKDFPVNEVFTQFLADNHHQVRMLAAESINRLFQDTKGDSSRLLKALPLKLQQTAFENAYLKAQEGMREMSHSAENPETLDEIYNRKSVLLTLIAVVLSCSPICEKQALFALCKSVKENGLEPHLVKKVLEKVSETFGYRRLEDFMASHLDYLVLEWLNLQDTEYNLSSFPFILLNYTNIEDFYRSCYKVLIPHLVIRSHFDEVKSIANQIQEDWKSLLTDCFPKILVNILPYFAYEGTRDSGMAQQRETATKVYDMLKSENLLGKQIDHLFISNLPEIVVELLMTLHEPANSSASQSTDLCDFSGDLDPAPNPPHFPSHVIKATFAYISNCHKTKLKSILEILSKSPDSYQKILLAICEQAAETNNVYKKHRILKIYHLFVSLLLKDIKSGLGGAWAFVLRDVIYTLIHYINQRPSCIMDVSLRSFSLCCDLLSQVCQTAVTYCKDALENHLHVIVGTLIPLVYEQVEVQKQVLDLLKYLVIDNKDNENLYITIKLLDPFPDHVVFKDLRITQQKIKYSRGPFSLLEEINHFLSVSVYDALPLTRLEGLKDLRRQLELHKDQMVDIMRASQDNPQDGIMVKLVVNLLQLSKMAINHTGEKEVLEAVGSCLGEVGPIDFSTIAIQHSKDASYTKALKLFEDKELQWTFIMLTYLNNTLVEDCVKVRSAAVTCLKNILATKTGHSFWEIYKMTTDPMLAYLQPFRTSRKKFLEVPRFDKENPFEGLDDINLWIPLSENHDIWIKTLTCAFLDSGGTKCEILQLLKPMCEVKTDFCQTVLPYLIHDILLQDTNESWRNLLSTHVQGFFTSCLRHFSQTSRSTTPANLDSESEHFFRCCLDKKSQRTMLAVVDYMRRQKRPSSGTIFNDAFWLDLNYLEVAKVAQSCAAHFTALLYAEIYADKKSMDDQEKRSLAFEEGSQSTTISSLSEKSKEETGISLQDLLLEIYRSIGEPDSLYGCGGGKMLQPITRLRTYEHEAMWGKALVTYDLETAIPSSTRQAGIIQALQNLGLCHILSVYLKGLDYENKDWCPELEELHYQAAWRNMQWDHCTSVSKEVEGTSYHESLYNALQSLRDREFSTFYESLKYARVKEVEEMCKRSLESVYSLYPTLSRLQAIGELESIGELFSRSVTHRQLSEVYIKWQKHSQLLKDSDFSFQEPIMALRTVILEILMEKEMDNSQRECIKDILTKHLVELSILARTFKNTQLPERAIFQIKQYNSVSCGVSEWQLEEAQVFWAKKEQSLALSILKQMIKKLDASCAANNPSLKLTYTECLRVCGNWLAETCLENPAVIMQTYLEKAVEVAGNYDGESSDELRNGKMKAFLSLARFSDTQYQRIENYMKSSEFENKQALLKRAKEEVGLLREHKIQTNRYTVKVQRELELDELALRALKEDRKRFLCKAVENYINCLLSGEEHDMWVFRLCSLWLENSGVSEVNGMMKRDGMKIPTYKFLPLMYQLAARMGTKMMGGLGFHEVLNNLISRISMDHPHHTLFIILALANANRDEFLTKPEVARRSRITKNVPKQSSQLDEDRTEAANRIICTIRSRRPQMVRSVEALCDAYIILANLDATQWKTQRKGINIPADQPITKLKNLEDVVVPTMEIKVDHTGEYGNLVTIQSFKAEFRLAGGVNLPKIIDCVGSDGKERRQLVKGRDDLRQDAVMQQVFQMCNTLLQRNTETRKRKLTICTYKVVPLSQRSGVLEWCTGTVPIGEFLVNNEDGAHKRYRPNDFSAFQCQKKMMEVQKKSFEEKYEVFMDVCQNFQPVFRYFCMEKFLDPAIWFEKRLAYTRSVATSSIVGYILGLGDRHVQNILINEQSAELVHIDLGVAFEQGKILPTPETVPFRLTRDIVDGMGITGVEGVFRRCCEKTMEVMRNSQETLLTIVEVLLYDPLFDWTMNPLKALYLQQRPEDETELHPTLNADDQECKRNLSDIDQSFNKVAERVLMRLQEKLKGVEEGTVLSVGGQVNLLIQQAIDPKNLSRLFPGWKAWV

[4] = 1/10th MTD of Wtmn (0.07 mg/kg)

COC[C@H]1OC(=O)c2coc3c2[C@@]1(C)C1=C(C3=O)[C@@H]2CCC(=O)[C@@]2(C)C[C@H]1OC(C)=O [Wortmannin, wortmannin]
half-life in serum [1]: approximately 10 minutes
MTD ([2]; C57BL/6 (Black) mice): 0.7 mg/kg
MTD ([2]; CB6F1 (Brown) mice): 0.5 mg/kg
MTD ([2]; CD1 (White) mice): 0.7 mg/kg
MTD ([2]; NOD/SCID mice): 0.7 mg/kg
Hematologic Toxicity: Monocytes ([3]; 1/5th MTD of Wtmn (0.14 mg/kg)): 0.55 ± 0.07 103/μl
Hematologic Toxicity: Lymphocytes ([3]; 1/5th MTD of Wtmn (0.14 mg/kg)): 0.4 ± 0.42 103/μl
Hematologic Toxicity: Granulocytes ([3]; 1/5th MTD of Wtmn (0.14 mg/kg)): 0.8 ± 0.14 103/μl
Hematologic Toxicity: WBC ([3]; 1/5th MTD of Wtmn (0.14 mg/kg)): 2.8 ± 0.28 103/μl
Hepatotoxicity: ALT ([3]; 1/5th MTD of Wtmn (0.14 mg/kg)): 134 ± 17 U/L
Hepatotoxicity: AST ([3]; 1/5th MTD of Wtmn (0.14 mg/kg)): 44 ± 3 U/L
Hematologic Toxicity: Monocytes [3, 4]: 0.8 ± 0.42 103/μl
Hematologic Toxicity: Lymphocytes [3, 4]: 0.9 ± 0.28 103/μl
Hematologic Toxicity: Granulocytes [3, 4]: 2.4 ± 0.11 103/μl
Hematologic Toxicity: WBC [3, 4]: 4.3 ± 0.13 103/μl
Hepatotoxicity: ALT [3, 4]: 64 ± 11 U/L
Hepatotoxicity: AST [3, 4]: 40 ± 7 U/L
cytotoxicity against cancer cells (cancer cells): unexpectedly low cytotoxicity

O=c1cc(N2CCOCC2)oc2c(-c3cccc4c3sc3ccccc34)cccc12 [NU7441]
IC50 (DNA-PK): 13 nM

O=c1cc(-c2cccc3c2Sc2ccccc2S3)oc(N2CCOCC2)c1 [KU-55933, 2-morpholin-4-yl-6-thianthren-1-yl-pyran-4-one]
inhibits ATM (ATM): low nanomolar concentrations
